Literature values, collected in US20080280955A1, “Methods and compositions for screening and treatment of disorders of blood glucose regulation” (Perlegen Sciences, Inc., priority 2005, published 2008).

How the values were obtained:
PPAR-alpha = target: T1, PPAR-alpha (Homo sapiens, UniProt Q07869)
T1 sequence (Q07869 1-468): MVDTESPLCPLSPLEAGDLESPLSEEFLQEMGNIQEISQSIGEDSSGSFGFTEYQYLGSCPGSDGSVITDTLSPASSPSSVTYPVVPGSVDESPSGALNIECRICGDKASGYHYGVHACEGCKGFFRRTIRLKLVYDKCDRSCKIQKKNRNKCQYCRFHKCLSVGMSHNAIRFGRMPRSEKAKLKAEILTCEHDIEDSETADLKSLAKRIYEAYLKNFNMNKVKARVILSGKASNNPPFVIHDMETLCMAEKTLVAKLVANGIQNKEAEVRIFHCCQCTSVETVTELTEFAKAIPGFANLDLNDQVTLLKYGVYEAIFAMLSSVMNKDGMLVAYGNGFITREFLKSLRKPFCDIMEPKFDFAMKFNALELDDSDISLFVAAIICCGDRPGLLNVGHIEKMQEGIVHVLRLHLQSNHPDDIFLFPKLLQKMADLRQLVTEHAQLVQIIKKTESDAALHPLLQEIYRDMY

PPAR-delta = target: T2, PPAR-delta (Homo sapiens, UniProt Q03181)
T2 sequence (Q03181 1-441): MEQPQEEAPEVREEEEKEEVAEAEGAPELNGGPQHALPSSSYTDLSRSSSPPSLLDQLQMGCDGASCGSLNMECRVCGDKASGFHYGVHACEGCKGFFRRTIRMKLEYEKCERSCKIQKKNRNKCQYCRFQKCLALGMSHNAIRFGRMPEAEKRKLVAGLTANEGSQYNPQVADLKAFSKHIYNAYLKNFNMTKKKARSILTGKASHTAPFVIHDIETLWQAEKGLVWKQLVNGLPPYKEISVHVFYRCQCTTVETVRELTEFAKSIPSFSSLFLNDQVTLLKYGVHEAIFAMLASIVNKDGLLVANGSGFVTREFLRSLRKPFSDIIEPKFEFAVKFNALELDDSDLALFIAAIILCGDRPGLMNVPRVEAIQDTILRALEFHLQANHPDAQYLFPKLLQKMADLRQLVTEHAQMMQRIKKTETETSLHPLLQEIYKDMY

PPAR-gamma = target: T3, PPAR-gamma (Homo sapiens, UniProt P37231); conditions: context-specific, depends on cell type
T3 sequence (P37231 1-505): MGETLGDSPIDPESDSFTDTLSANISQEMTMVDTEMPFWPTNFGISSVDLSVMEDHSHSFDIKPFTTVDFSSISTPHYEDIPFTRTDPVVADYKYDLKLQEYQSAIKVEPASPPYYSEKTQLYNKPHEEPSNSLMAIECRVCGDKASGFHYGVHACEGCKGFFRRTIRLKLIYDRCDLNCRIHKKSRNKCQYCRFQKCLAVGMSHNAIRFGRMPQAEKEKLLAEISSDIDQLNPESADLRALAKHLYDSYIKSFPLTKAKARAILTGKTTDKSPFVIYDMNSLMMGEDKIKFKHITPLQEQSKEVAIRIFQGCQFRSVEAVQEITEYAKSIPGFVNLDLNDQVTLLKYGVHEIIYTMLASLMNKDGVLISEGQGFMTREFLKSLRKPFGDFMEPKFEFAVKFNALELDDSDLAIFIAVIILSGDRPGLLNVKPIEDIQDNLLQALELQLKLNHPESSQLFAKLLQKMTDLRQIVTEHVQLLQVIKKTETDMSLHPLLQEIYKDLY

SMILES: O=C1NC(=O)C(Cc2ccc3cc(OCc4ccccc4F)ccc3c2)S1 (centres unmarked) [netoglitazone, 5-[{6-(2-fluorobenzyl)oxy-2-naphthyl}methyl]-2,4-thiazolidinedione]
- modulation of PPAR-alpha (PPAR-alpha): appears to modulate
- efficacy in lowering plasma glucose, insulin, and triglyceride levels (compared with pioglitazone and troglitazone): more efficacious than pioglitazone and troglitazone
- potency relative to rosiglitazone (compared with rosiglitazone): about three-fold
- modulation of PPAR-delta (PPAR-delta): appears to modulate
- behaviour at PPAR-gamma (PPAR-gamma): full agonist of PPAR-gamma and as a partial agonist or antagonist in others
